# From patent publication EP1500403A1, “PREVENTIVE/REMEDY FOR DIABETES” (Ajinomoto Co., Inc., priority 2002, dated 2003)
# What was measured:
# Type in all cases: in vivo
# [1] = test system: Male Wistar rats; experiment: Assessment of excretion action of urine sugar in rat (Test Example 1B); settings: Oral Administration in Rat (24 hours)
# Method: Male Wistar rats aged 5 weeks (purchased from Charles River Japan, Inc.) were acclimatized in metabolic cages for one week, for use at this experiment. The test compounds suspended in olive oil were prepared into solutions to a dose of 5 ml per 1 kg rat body weight. After the rats were starved for 4 hours, the test compounds were orally given at 10, 30 and 100 mg/kg to the rats at 11 am. Immediately after dosing until 24 hours later, urine was collected. The volume of urine was measured. Then, urine glucose concentration was assayed by glucose oxidase method, to calculate the glucose excretion into urine per individual per day. As a positive control, 3-(5-benzo[b]furanyl)-2'-(6-o-methoxycarbonyl-β-D-glucopyranosyldxy)-6'-hydroxy-4'-methylpropiophenone [under a different name of 3-(benzo[b]furan-5-yl)-2', 6'-dihydroxy-4'-methylpropiophenone 2'-o-(6-o-methoxycarbonyl-β-D-glucopyranoside)] was used.
# [2] = test system: glucose-loaded rats; experiment: Blood glucose time course after oral glucose loading in rats (Example I); settings: Wistar rats, glucose 1 g/kg p.o.
# Method: Wistar rats (age of 7 weeks; male) were divided into groups with matched body weights. After 17-hour starvation, glucose was orally given at 1 g/kg to the animals. Immediately after the administration, the inhibitor A of renal glucose reabsorption or the inhibitor B of renal glucose reabsorption (A at 30 mg/kg or 60 mg/kg; B at 30 mg/kg or 80 mg/kg) or glibenclamide (1 mg/kg or 2 mg/kg) or nateglinide (50 mg/kg or 80 mg/kg) was orally given. Additionally, a group on the combined use of both of an inhibitor of renal glucose reabsorption and a hypoglycemic agent was also prepared. A vehicle was orally given to a control group after glucose administration.
# Blood glucose was measured in a time course.
# [3] = test system: Type 2 diabetes model db/db mice; experiment: Nateglinide load test after repeated dosing in db/db mice (Example IV); settings: for Blood glucose level 30 minutes after loading / Blood glucose level 120 minutes after loading / Blood glucose level before loading: db/db mice, compound successively dosed 80 mg/kg p.o. twice daily, day 25, Mean ± SD, N = 5; for Blood glucose level 30 minutes after loading / Blood glucose level 120 minutes after loading: loading with glucose 1 g/kg and nateglinide 50 mg/kg p.o.; for Blood glucose level before loading: starved 17 hours, nateglinide load test
# Method: Type 2 diabetes model db/db mice (age 6 weeks) were fed and kept with a feed twice daily over one hour starting 9 am and one hour starting 3 pm, for one week. Then, the mice were divided into groups with matched blood glucose levels and body weights. Subsequently, the inhibitor B of renal glucose reabsorption at 80 mg/kg or nateglinide at 80 mg/kg was orally given, immediately before feeding twice daily. Only a vehicle was orally given immediately before feeding twice daily to the animals of a control group. On day 25 from the start of administration, the mice of the individual experimental groups were starved for 17 hours and then orally given glucose (1 g/kg) and nateglinide (50 mg/kg). Blood glucose levels were measured before and after the administration, to examine whether or not the hypoglycemic action of nateglinide could be observed (nateglinide load test).
# [4] = test system: Male Wistar rats; experiment: Assessment of excretion action of urine sugar in rat (Test Example 2A); settings: urine collected 24 hours
# Method: Male Wistar rats aged 5 weeks (purchased from Charles River Japan, Inc.) were acclimatized in metabolic cages for one week, for use at this experiment. The test compounds suspended in olive oil were dosed at 5 ml per 1 kg rat body weight.
# After the rats were starved for 4 hours, the test compounds were orally given to the rats at 11 am. Immediately after dosing until 24 hours later, urine was collected. The volume of urine was measured. Then, urine sugar concentration was assayed by glucose oxidase method, to calculate the glucose excretion into urine per individual per day.
# [5] = test system: Type 2 diabetic model GK rats; experiment: Blood glucose after repeated once daily dosing in GK rats (Example III); settings: once daily p.o., vs vehicle-dosed group (Fig. 4)
# Method: These agents were orally given once daily at the same time period as in the group administered with a single one agent. Only a vehicle was given orally to a control group. On day 25 after the start of administration, blood glucose was assayed sequentially, to compare the groups in terms of the resulting blood glucose levels.
# [6] = nateglinide 50 mg/kg, inhibitor B 30 mg/kg, or both, p.o., vs vehicle group (Fig. 2)
# [7] = nateglinide 80 mg/kg or inhibitor B 80 mg/kg p.o., vs lower dose (Fig. 2)
# [8] = Dose 100 mg/kg p.o. in olive oil
# [9] = glibenclamide 1 mg/kg, inhibitor A 30 mg/kg, or both, p.o., vs vehicle group (Fig. 1)
compound,measurement,setting,value
COC(=O)OC[C@H]1O[C@@H](Oc2cc(C)cc(O)c2C(=O)CCc2ccc3occc3c2)[C@H](O)[C@@H](O)[C@@H]1O [3-(5-benzo[b]furanyl)-2'-(6-o-methoxycarbonyl-β-D-glucopyranosyloxy)-6'-hydroxy-4'-methylpropiophenone],Excreted urine sugar,[1]; Dose 10 mg/kg,2 mg
same,Excreted urine sugar,[1]; Dose 30 mg/kg,78 mg
same,Excreted urine sugar,[1]; Dose 100 mg/kg,274 mg
same,blood glucose level 180 minutes after glucose loading and thereafter,"[2]; inhibitor B 30 mg/kg alone or with nateglinide 50 mg/kg, p.o., vs vehicle group (Fig. 2)",lower than that in the vehicle-dosed group
same,hyperglycemia / blood glucose level 30 minutes after glucose loading,[2]; [6],not reduced as greatly as in the case of nateglinide
same,pattern of glycemic suppression at increased dose,[2]; [7],pattern of glycemic suppression was also observed
same,"hyperglycemia due to glucose loading, 30 minutes after loading with glucose and nateglinide","[3]; db/db mice given inhibitor B 80 mg/kg twice daily long-term, compared with vehicle-dosed and nateglinide-dosed groups",greatly suppressed hyperglycemia
same,Blood glucose level 30 minutes after loading,[3],172 ± 14 mg/dL
same,Blood glucose level 120 minutes after loading,[3],103 ± 5 mg/dL
same,Blood glucose level before loading,[3],131 ± 6 mg/dL
Cc1[nH]nc(O[C@@H]2O[C@H](CO)[C@@H](O)[C@H](O)[C@H]2O)c1Cc1ccc(OC(C)C)cc1 [4-[(4-isopropoxyphenyl)methyl)-5-methyl-1H-pyrazole-3-o-β-D-glucopyranoside],Excreted urine sugar,[4]; [8],14 mg
"CCc1ccc(Cc2c(O[C@@H]3O[C@H](COC(=O)OC)[C@@H](O)[C@H](O)[C@H]3O)nn(C(CF)CF)c2C(F)(F)F)cc1 [Compound of Production Example 2B, 4'-[(4'-ethylphenyl)methyl]-1'-(1',3'-difluoro-2'-propyl) -5'-(trifluoromethyl) -1H-pyrazole-3'-o-(6-o-methoxycarbonyl-β-D-glucopyranoside)]",Excreted urine sugar,[1]; Dose 10 mg/kg,136 mg
same,Excreted urine sugar,[1]; Dose 30 mg/kg,272 mg
same,Excreted urine sugar,[1]; Dose 100 mg/kg,524 mg
"CCc1ccc(Cc2c(O[C@@H]3O[C@H](COC(=O)OC)[C@@H](O)[C@H](O)[C@H]3O)nn(Cc3ccccc3)c2C(F)(F)F)cc1 [Compound of Production Example 4-A, 4'-[(4'-ethylphenyl)methyl]-1'-benzyl-5'-trifluoromethyl-1H-pyrazole-3'-o-(6-carbomethoxy)-β-D-glucopyranoside]",Excreted urine sugar,[4]; [8],27 mg
"CCc1ccc(Cc2c(O[C@@H]3O[C@H](COC(=O)OC)[C@@H](O)[C@H](O)[C@H]3O)nn(Cc3ccc(OC)cc3)c2C(F)(F)F)cc1 [Compound of Production Example 6-A, 4'-[(4'-ethylphenyl)methyl]-1'-[(4'-methoxyphenyl)methyl]-5'-trifluoromethyl-1H-pyrazole-3'-o-(6-carbomethoxy)-β-D-glucopyranoside]",Excreted urine sugar,[4]; [8],59 mg
"CCc1ccc(Cc2c(O[C@@H]3O[C@H](COC(=O)OC)[C@@H](O)[C@H](O)[C@H]3O)nn(-c3ccccc3)c2C(F)(F)F)cc1 [Compound of Production Example 8-A, 4'-[(4'-ethylphenyl)methyl]-1'-phenyl-5'-trifluoromethyl-1H-pyrazole-3'-o-(6-carbomethoxy)-β-D-glucopyranoside]",Excreted urine sugar,[4]; [8],4.1 mg
"COC(=O)OC[C@H]1O[C@@H](Oc2nn(C(C)C)c(C)c2Cc2ccc(OC)c(F)c2)[C@H](O)[C@@H](O)[C@@H]1O [Compound of Production Example 10-A, 4'-[(3'-fluoro-4'-methoxyphenyl)methyl]-1'-isopropyl-5'-methyl-1H-pyrazole-3'-o-(6-carbomethoxy)-β-D-glucopyranoside]",Excreted urine sugar,[4]; [8],734 mg
"COC(=O)OC[C@H]1O[C@@H](Oc2nn(C(C)C)c(C)c2Cc2ccc(C)c(F)c2)[C@H](O)[C@@H](O)[C@@H]1O [Compound of Production Example 14-A, 4'-[(3'-fluoro-4'-methylphenyl)methyl]-1'-isopropyl-5'-methyl-1H-pyrazole-3'-o-(6-carbomethoxy)-β-D-glucopyranoside]",Excreted urine sugar,[4]; [8],918 mg
"CCc1ccc(Cc2c(O[C@@H]3O[C@H](COC(=O)OC)[C@@H](O)[C@H](O)[C@H]3O)nn(C(C)C)c2C)cc1 [Compound of Production Example 16-A, 4'-[(4-ethylphenyl)methyl]-1'-isopropyl-5'-methyl-1H-pyrazole-3'-o-(6-carbomethoxy)-β-D-glucopyranoside]",Excreted urine sugar,[4]; Dose 3 mg/kg p.o. in olive oil,28 mg
same,Excreted urine sugar,[4]; Dose 10 mg/kg p.o. in olive oil,263 mg
same,Excreted urine sugar,[4]; Dose 30 mg/kg p.o. in olive oil,294 mg
same,Excreted urine sugar,[4]; [8],598 mg
COc1ccc(Cl)cc1C(=O)NCCc1ccc(S(=O)(=O)NC(=O)NC2CCCCC2)cc1 [glibenclamide],blood glucose level,"[5]; day 25, glibenclamide 3 mg/kg, inhibitor A 30 mg/kg, or both",no difference was observed from the vehicle-dosed group
same,blood glucose level,"[5]; day 25, glibenclamide 6 mg/kg",did not produce any difference in blood glucose level from the vehicle-dosed group
same,blood glucose level 120 minutes after glucose loading and thereafter,[2]; [9],lowered blood glucose
same,hyperglycemia / blood glucose level immediately after glucose loading (30 minutes),[2]; [9],did not suppress hyperglycemia
same,pattern of glycemic suppression at increased dose,"[2]; glibenclamide 2 mg/kg or inhibitor A 60 mg/kg p.o., vs lower dose (Fig. 1)",did not change
CC(C)[C@H]1CC[C@H](C(=O)N[C@H](Cc2ccccc2)C(=O)O)CC1 [nateglinide],blood glucose level 120 minutes after glucose loading and thereafter,"[2]; nateglinide 50 mg/kg p.o., vs vehicle-dosed group (Fig. 2)",did not lower the blood glucose level
same,hyperglycemia / blood glucose level 30 minutes after glucose loading,[2]; [6],more highly suppressed hyperglycemia
same,hyperglycemia / blood glucose level 60 minutes after glucose loading,[2]; [6],more highly suppressed hyperglycemia
same,pattern of glycemic suppression at increased dose,[2]; [7],did not change
same,Blood glucose level 30 minutes after loading,[3],259 ± 18 mg/dL
same,Blood glucose level 120 minutes after loading,[3],144 ± 20 mg/dL
same,Blood glucose level before loading,[3],158 ± 12 mg/dL
